Reference: ChEMBL document CHEMBL5120882, “Medicinal Chemistry Perspective on Targeting Mono-ADP-Ribosylating PARPs with Small Molecules” (J Med Chem, 2022)

Columns and labels:
[1] = biological target: T1, Poly [ADP-ribose] polymerase tankyrase-1 (Homo sapiens, UniProt O95271); assay: Inhibition of N-terminal his-tagged human TNKS1 expressed in Escherichia coli Rosette2 (DE3)
T1 sequence (O95271 whole entry): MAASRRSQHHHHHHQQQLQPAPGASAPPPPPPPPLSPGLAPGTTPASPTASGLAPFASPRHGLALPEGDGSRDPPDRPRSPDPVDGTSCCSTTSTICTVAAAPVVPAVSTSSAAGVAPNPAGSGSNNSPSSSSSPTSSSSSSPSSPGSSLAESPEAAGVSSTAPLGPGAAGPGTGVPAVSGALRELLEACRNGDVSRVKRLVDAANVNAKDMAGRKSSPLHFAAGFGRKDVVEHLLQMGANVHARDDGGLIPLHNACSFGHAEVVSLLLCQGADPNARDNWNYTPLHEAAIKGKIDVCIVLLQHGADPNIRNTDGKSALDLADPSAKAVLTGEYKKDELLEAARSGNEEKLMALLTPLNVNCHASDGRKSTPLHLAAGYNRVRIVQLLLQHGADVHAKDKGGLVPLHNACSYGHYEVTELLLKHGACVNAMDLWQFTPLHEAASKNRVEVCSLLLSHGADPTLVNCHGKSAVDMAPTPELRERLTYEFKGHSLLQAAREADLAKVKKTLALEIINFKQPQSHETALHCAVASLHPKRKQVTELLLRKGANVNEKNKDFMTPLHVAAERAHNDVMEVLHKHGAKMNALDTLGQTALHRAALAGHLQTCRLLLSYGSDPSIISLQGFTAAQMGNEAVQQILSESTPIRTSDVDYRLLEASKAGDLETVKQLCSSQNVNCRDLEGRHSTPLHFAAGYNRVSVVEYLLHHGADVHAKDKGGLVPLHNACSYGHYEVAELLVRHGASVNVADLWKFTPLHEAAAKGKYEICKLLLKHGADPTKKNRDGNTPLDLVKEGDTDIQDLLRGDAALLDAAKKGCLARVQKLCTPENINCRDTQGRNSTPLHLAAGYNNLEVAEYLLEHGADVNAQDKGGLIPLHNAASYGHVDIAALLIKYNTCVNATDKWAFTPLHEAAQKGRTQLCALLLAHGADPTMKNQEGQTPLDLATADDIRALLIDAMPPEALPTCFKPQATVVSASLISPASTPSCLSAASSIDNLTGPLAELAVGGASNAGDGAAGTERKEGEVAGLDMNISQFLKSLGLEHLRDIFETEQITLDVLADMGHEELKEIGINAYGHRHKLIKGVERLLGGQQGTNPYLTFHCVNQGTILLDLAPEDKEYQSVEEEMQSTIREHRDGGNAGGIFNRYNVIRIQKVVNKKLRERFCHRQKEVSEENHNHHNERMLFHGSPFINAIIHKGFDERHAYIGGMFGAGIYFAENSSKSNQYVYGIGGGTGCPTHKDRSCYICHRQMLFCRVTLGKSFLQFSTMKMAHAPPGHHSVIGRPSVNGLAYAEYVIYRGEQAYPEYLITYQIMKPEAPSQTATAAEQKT

[2] = biological target: Poly [ADP-ribose] polymerase 1 (Homo sapiens, UniProt P09874); assay: Inhibition of N-terminal his-tagged human PARP1 expressed in Escherichia coli Rosette2 (DE3)
[3] = biological target: T2, Protein mono-ADP-ribosyltransferase PARP15 (Homo sapiens, UniProt Q460N3); assay: Inhibition of N-terminal his-tagged human PARP15 expressed in Escherichia coli Rosette2 (DE3)
T2 sequence (Q460N3 whole entry): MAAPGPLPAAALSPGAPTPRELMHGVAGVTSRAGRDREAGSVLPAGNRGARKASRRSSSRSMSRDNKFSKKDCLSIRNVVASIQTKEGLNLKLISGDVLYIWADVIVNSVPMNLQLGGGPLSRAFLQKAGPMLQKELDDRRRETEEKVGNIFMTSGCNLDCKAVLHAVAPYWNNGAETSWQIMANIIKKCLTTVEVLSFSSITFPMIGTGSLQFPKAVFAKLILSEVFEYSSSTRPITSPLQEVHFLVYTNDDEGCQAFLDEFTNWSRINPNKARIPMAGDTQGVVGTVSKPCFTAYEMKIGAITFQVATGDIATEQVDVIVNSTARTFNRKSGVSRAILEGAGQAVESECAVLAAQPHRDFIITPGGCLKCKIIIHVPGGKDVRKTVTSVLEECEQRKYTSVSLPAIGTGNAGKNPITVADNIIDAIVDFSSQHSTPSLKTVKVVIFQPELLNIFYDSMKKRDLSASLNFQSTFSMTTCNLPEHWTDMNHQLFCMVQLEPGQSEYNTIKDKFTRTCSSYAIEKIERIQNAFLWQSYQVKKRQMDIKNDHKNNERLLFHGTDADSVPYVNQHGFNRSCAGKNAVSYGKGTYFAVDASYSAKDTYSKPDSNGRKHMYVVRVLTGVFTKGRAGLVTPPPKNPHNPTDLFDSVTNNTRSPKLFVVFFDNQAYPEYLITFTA

HeLa = assay: Cytoprotective activity against human HeLa cells assessed as rescue of PARP10-induced cell death by measuring number of colonies treated for 8 to 10 days followed by compound replenishment for every 3 days by methylene blue staining based assay; format: functional

Chain of Poly [ADP-ribose] polymerase 1 (P09874 whole entry): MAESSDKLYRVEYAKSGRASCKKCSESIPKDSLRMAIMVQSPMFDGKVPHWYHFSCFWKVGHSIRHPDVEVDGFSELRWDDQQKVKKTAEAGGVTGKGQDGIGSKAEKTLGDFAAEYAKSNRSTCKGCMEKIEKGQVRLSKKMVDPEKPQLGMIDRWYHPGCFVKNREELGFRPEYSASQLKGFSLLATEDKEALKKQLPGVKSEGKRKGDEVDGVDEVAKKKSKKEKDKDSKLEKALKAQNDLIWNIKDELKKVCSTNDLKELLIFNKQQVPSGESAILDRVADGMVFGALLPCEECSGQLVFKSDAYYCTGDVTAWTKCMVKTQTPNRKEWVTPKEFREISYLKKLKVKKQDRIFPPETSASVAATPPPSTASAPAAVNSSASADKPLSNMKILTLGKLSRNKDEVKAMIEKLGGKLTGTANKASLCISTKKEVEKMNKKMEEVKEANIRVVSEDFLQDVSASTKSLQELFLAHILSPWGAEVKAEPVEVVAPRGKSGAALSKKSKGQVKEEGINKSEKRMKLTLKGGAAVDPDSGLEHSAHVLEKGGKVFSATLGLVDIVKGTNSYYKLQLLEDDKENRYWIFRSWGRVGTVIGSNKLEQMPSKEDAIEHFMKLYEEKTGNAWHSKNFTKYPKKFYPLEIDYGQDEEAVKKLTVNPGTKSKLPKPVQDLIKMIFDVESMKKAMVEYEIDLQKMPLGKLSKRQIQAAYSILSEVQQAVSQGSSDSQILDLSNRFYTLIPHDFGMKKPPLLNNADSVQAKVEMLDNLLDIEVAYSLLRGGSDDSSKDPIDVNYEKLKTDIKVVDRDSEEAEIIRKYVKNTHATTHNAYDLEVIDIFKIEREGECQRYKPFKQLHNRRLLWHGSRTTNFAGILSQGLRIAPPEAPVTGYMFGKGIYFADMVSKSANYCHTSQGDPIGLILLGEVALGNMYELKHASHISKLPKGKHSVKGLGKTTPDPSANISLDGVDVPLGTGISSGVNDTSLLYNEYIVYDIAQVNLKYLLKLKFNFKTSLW

SMILES | IC50 [1] | IC50 [2] | IC50 [3] | IC50 (HeLa)
NC(=O)c1ccc(Oc2cccc(C(N)=O)c2)cc1 | 21 µM | > 100 µM | 1.7 µM | 1.8 µM
N#Cc1ccc(Oc2ccc(C(N)=O)cc2)cc1 | > 100 µM | > 100 µM | 11 µM | 1.7 µM
